Measured values taken from US20180355390A1, “Method to produce L-methionine by a fermentative production” (Evonik Degussa GmbH, priority 2016, published 2018).
Values after ≈ are worked out from the molar mass of the structure shown.

Experiments:
[1] = physchem; conditions: Residual solubility L-Methionine
Procedure: The amount of product in the fermentation medium or in the different downstream process fluxes such as supernatant, permeate or mother liquors of crystallization can be determined using a number of methods known in the art, for example, high performance liquid chromatography (HPLC) or gas chromatography (GC). For example the quantity of methionine obtained in the medium is measured by HPLC after OPA/FMOC derivatization using L-methionine (Fluka, Ref 64319) as a standard.
Different solvents were assayed on the fermentation concentrated supernatant issued from step ii) with the same ratio of 70% (solvent/(methionine containing fraction+solvent), in weight).

[2] = physchem
Procedure: The methionine solubility at 35° C. is approximately 70 g/L. If the solution is concentrated to approximately 250 g/L, under a vacuum ensuring a temperature of 35° C., the solid methionine recovery yield is >70%. Under these conditions, and by virtue of the removal of the soluble impurities, the solid methionine crystallizes in the form of spongy spheres which are easy to separate from the mother liquors.
The fermentation supernatant issued from step ii) was concentrated to approximately 250 g·L^−1 and ethanol has been added at different proportions 0%, 30% and 70% (corresponding to the ratio solvent/(methionine containing fraction+solvent) in weight). The theoretical yield of recovery has been determined in function of ethanol content.

- solubility ([1]; concentrated fermentation supernatant with added solvent, 4 °C, aqueous with cosolvent or surfactant or cyclodextrin, Ethanol, ratio 70% by weight): 4000 to 5000 µg/mL
- solubility ([1]; concentrated fermentation supernatant with added solvent, 4 °C, aqueous with cosolvent or surfactant or cyclodextrin, Isopropanol, ratio 70% by weight): 4000 to 5000 µg/mL
- solubility ([1]; concentrated fermentation supernatant with added solvent, 4 °C, aqueous with cosolvent or surfactant or cyclodextrin, Methanol, ratio 70% by weight): 5000 to 6000 µg/mL
- solubility ([1]; concentrated fermentation supernatant with added solvent, aqueous with cosolvent or surfactant or cyclodextrin, 2-Butanone, ratio 70% by weight, room temperature): > 15000 µg/mL
- solubility ([1]; concentrated fermentation supernatant with added solvent, aqueous with cosolvent or surfactant or cyclodextrin, Acetonitrile, ratio 70% by weight, room temperature): 5500 to 6500 µg/mL
- solubility ([1]; concentrated fermentation supernatant with added solvent, aqueous with cosolvent or surfactant or cyclodextrin, Ethanol, ratio 70% by weight, room temperature): 5000 to 6000 µg/mL
- solubility ([1]; concentrated fermentation supernatant with added solvent, aqueous with cosolvent or surfactant or cyclodextrin, Isopropanol, ratio 70% by weight, room temperature): 5000 to 6000 µg/mL
- solubility ([1]; concentrated fermentation supernatant with added solvent, aqueous with cosolvent or surfactant or cyclodextrin, Methanol, ratio 70% by weight, room temperature): 7000 to 8000 µg/mL
- solubility ([1]; concentrated fermentation supernatant, plasma or biological fluid, no solvent (Reference), room temperature): 65000 µg/mL (≈ 436 mM)
- solubility ([2]; 35 °C): ~70000 µg/mL (≈ 469 mM)
- solubility ([2]; 37 °C): ~70000 µg/mL (≈ 469 mM)
Structure (SMILES): CSCC[C@H](N)C(=O)O [L-methionine]
